Earlier results as cited in US20110104257A1, “POLYMORPHISMS PREDICTIVE OF PLATINUM-COORDINATING COMPOUND-INDUCED OTOTOXICITY” (priority 2008, published 2011).
Where two headings read alike, the source gives them in different places.

How the values were obtained:
cisplatin ototoxicity [1] = test system: cisplatin ototoxicity; parameters: key to the marks not given beside the values; details: Guinea pig
cisplatin ototoxicity [2] = details: Rat
[3] = mice
[4] = test system: aminoglycoside ototoxicity; details: Guinea pig; note: key: +, low efficacy; ++, moderate efficacy; +++, high efficacy
[5] = test system: aminoglycoside ototoxicity; parameters: key to the marks not given beside the values; details: Gentamicin; Rat; note: key: +, low efficacy; ++, moderate efficacy; +++, high efficacy
cisplatin ototoxicity [6] = details: species cell empty
cisplatin ototoxicity [7] = test system: cisplatin ototoxicity; parameters: key to the marks not given beside the values; details: Hamster
cisplatin ototoxicity [8] = test system: cisplatin ototoxicity; parameters: key to the marks not given beside the values; details: Chinchilla
[9] = test system: aminoglycoside ototoxicity; parameters: key to the marks not given beside the values; details: Gentamicin; Mouse; note: key: +, low efficacy; ++, moderate efficacy; +++, high efficacy

## Z-DEVD-fluoromethyl ketone
Cisplatin ototoxicity [1]
  Degree of protection against cisplatin ototoxicity: +++

## N=C(N)NN [Aminoguanidine]
Cisplatin ototoxicity [2]
  Degree of protection against cisplatin ototoxicity: ++

## C[S+](CC[C@H](N)C(=O)O)C[C@H]1O[C@@H](n2cnc3c(N)ncnc32)[C@H](O)[C@@H]1O (stereo partly shown) [SAM, S-adenosyl methionine]
[3]
  toxicity as monitored by renal dysfunction (creatinine and BUN): not toxic

## Cc1c(C)c2c(c(C)c1O)CCC(C)(C(=O)O)O2 (stereo not shown) [Trolox]
Cisplatin ototoxicity [1]
  Degree of protection against cisplatin ototoxicity: ++

## CC(S)C(=O)NCC(=O)O (stereo not shown) [Tiopronin]
Cisplatin ototoxicity [2]
  Degree of protection against cisplatin ototoxicity: ++

## c1ccc(-c2ccccn2)nc1 [2,2-DPD, 2,2′-dipyridyl]
[4]; Gentamicin
  Efficacy of protective agent against aminoglycoside ototoxicity: ++

## CSCC[C@H](NC(=O)[C@H](Cc1ccccc1)NC[C@@H](NC[C@@H](N)CS)C(C)C)C(=O)O [B581]
[5]
  Efficacy of protective agent against aminoglycoside ototoxicity: ++

## SOD1: SOD1, protective agent
[4]; Kanamycin + Ethacrynic acid
  Efficacy of protective agent against aminoglycoside ototoxicity: ++

## Cc1c(C)c2c(c(C)c1O)CC[C@@](C)(CCC[C@H](C)CCC[C@H](C)CCCC(C)C)O2 [α-Tocopherol]
Cisplatin ototoxicity [2]
  Degree of protection against cisplatin ototoxicity: ++
Cisplatin ototoxicity [1]
  Degree of protection against cisplatin ototoxicity: ++
[4]; Gentamicin
  Efficacy of protective agent against aminoglycoside ototoxicity: +++

## CCSCc1ccc2c(c1)c1c3c(c4c5cc(CSCC)ccc5n5c4c1n2[C@H]1C[C@](O)(C(=O)OC)[C@]5(C)O1)CNC3=O [CEP1347]
[4]; Gentamicin
  Efficacy of protective agent against aminoglycoside ototoxicity: +

## Glutathione ester
Cisplatin ototoxicity [2]
  Degree of protection against cisplatin ototoxicity: +

## CSCC[C@@H](N)C(=O)O [D-methionine]
Cisplatin ototoxicity [2]
  Degree of protection against cisplatin ototoxicity: +++
[4]; Gentamicin
  Efficacy of protective agent against aminoglycoside ototoxicity: ++

## Z-LEKD-fluoromethyl ketone
Cisplatin ototoxicity [1]
  Degree of protection against cisplatin ototoxicity: +++

## O=C(O)CCCC[C@@H]1CCSS1 (racemic) [Lipoic acid]
[4]; Amikacin
  Efficacy of protective agent against aminoglycoside ototoxicity: +++

## N.N.[Cl][Pt][Cl] [cisplatin]
Adult patients
  severe, permanent, bilateral hearing loss, share of patients: 10-25%
children
  severe, permanent, bilateral hearing loss, share of patients: 41-61%
Children less than 5 years old
  Permanent hearing loss, frequency: 48%
Patients receiving high doses (>400 mg/m^2)
  severe, permanent, bilateral hearing loss, share of patients: 50%
Patients receiving standard doses of cisplatin
  Permanent hearing loss, share of patients: 25%

## NS(=O)(=O)C#Cc1ccccc1 [Pifithrin]
Cisplatin ototoxicity [6]
  Degree of protection against cisplatin ototoxicity: ++

## NCCCNCCSP(=O)(O)O [Amifostine]
Cisplatin ototoxicity [7]
  Degree of protection against cisplatin ototoxicity: +++

## C=C(CC)C(=O)c1ccc(OCC(=O)O)c(Cl)c1Cl [Ethacrynic acid]
[4]; Gentamicin
  Efficacy of protective agent against aminoglycoside ototoxicity: +

## C[C@H](Cc1ccccc1)Nc1ncnc2c1ncn2[C@@H]1O[C@H](CO)[C@@H](O)[C@H]1O [R-PIA]
Cisplatin ototoxicity [8]
  Degree of protection against cisplatin ototoxicity: ++

## OC[C@H]1O[C@@H](n2cnc3c(NC4CCCC4)nc(Cl)nc32)[C@H](O)[C@@H]1O [CCPA, 2-chloro-N-cyclopentyladenosine]
Cisplatin ototoxicity [6]
  Degree of protection against cisplatin ototoxicity: ++

## Methylthiobenzoic acid
Cisplatin ototoxicity [2]
  Degree of protection against cisplatin ototoxicity: ++

## [Cl-].[Cl-].[Mn+2].c1cc2nc(c1)CN[C@@H]1CCCC[C@H]1NCCN[C@@H]1CCCC[C@H]1NC2 [M40403]
[9]
  Efficacy of protective agent against aminoglycoside ototoxicity: ++
Cisplatin ototoxicity [6]
  Degree of protection against cisplatin ototoxicity: 0

## NCC[C@H](O)C(=O)N[C@@H]1C[C@H](N)[C@@H](O[C@H]2O[C@H](CN)[C@@H](O)[C@H](O)[C@H]2O)[C@H](O)[C@H]1O[C@H]1O[C@H](CO)[C@@H](O)[C@H](N)[C@H]1O [Amakacin preconditioning]
[4]; Amikacin
  Efficacy of protective agent against aminoglycoside ototoxicity: ++

## COC(=O)[C@H](CCSC)NC(=O)c1ccc(NC[C@@H](N)CS)cc1-c1ccccc1 [FTI277]
[5]
  Efficacy of protective agent against aminoglycoside ototoxicity: +++

## Nc1nc2c(ncn2[C@@H]2O[C@H](COP(=O)(O)OP(O)(O)=S)[C@@H](O)[C@H]2O)c(=O)[nH]1 [GDP-βs]
[5]
  Efficacy of protective agent against aminoglycoside ototoxicity: +++

B1: SOD2: SOD2, protective agent (protein, UniProt P04179 25-222, looked up)
Superoxide dismutase [Mn], …: KHSLPDLPYDYGALEPHINAQIMQLHHSKHHAAYVNNLNVTEEKYQEALAKGDVTAQIALQPALKFNGGGHINHSIFWTNLSPNGGGEPKGELLEAIKRDFGSFDKFKEKLTAASVGVQGSGWGWLGFNKERGHLQIAACPNQDPLQGTTGLIPLLGIDVWEHAYYLQYKNVRPDYLKAIWNVINWENVTERYMACKK
[4]; Kanamycin + Ethacrynic acid
  Efficacy of protective agent against aminoglycoside ototoxicity: ++
